Where two headings read alike, the source gives them in different places.
What was measured:
[1] = tested on: non-small cell lung cancer; conditions: Phase II, cited from earlier work
[2] = tested on: metastatic renal cell carcinoma; conditions: Phase II; cited from earlier work
HDAC = conditions: literature statement, cited from earlier work
[3] = phase I; cited from earlier work
[4] = tested on: WI38-VA13 (SV-40 transformed human lung fibroblast); experiment: SAHA-induced apoptosis / viability; format: cell-based
Text: (§1) HeLa (human cervical carcinoma), WI38 (human lung fibroblast), WI38-VA13 (SV-40 transformed human lung fibroblast), MCF-7 (human breast adenocarcinoma), T-24 human bladder transitional cell carcinoma), and LNCAP (human prostate adenocarcinoma) were obtained from the American type culture collection and cultured in accordance with the instructions. ARP-1 (human multiple myeloma) was generously provided by Dr. J. Hardoc (Arkansas Cancer Research Center, Little Rock) and cultured as indicated by the source.
(§2) Cells were harvested by trypsinization. Cell number and viability were measured by trypan blue dye exclusion and by Guava PCA-96 via count flex reagent according to the manufacturer's instruction (Guava).

[5] = tested on: WI38 (human lung fibroblast); experiment: SAHA-induced apoptosis / viability; format: cell-based; conditions: normal fibroblast WI38 cells, FIGS. 2-3
Text: as §1, §2

TRX [6] = experiment: Western blot of TRX protein in VA13; format: cell-based, human; conditions: VA13 cultured with 5 μmol/l SAHA, FIG. 4B
Experimental: (§3) Typically, whole cell lysates were prepared using a buffer (50 mM Tris-HCL pH 8, 300 mM NaCl, 5 mM EDTA, 0.5% NP-40, inhibitor pellet from Roche). Next, 10-25 μg of cell extract were subjected to standard SDS-poly acrylamide gel electrophoresis using 10%, 15%, and 18% criterion gels (Bio-Rad). After transferring to PVDF membrane (Amersham Biosciences), the membranes were blocked with 5% BSA PBS-Tween (0.1%). The membranes were then incubated with specific primary antibody and horseradish peroxidase-labeled secondary antibody. Immunoprecipitation was based on the protocol of Santa Cruz Biotechnology. Briefly, 100-500 μg of total cellular protein were applied and incubated with protein agarose (Ausubel, F. M., et al. Current Protocols in Molecular Biology. 10.16 John Wiley & Sons. 2001).
(§4) TBP-2 antiserum was generated in rabbits (Pocono Farms) using following sequence (peptide) CYM DVI PED HRL ESP (SEQ ID NO:7). Anti-TRX was prepared in the laboratory of Dr. Arne Holmgren (Karolinska institute) as a goat polyclonal antibody. Anti-tubulin was purchased from Oncogene.
(§5) TBP-2 has been identified as a protein that associates with the active (reduced) form of TRX, a dithiol-reducing redox regulatory protein (Nishiyama, A., et al., 1999, J. Biol. Chem. 274, 21645-21650). Binding of TBP-2 to TRX both inhibits the thiol-reducing activity and reduces the level of expression of TRX. […]

[7] = tested on: acetylated histones in PMN cells; conditions: following a single oral dose; cited from earlier work
TRX [8] = experiment: Western blot of TRX protein in WI38; format: cell-based, human; conditions: WI38 cultured with 5 μmol/l SAHA, FIG. 4B
Experimental: as §3, §4, §5

TRX [9] = experiment: Northern blot of TRX mRNA in WI38; format: cell-based, human; conditions: WI38 cultured with 5 μmol/l SAHA, FIG. 4A
Experimental: Cells were cultured and recovered by centrifugation and RNA was prepared as described (Richon, V. M., et al., 1996, Proc. Natl. Acad. Sci. USA. 93:5705-5708). Total RNA (10 μg) was analyzed by northern blotting using a ^32P-labeled 1.1-kb TBP-2 coding region cDNA probe or a 500 bp cDNA probe for human TRX (Butler et al., 2002, Proc. Natl. Acad. Sci. USA 99:11700-11705). Loading was determined using a ^32P labeled 50-mer 18s rRNA oligonucleotide.

[10] = tested on: solid and hematological tumors; conditions: cited from earlier work
[11] = tested on: WI38-VA13 (SV-40 transformed human lung fibroblast); experiment: Cell growth (cell number, trypan blue / Guava); format: cell-based; conditions: VA13 cells, FIG. 2A
Text: as §1, §2

[12] = tested on: WI38 (human lung fibroblast); experiment: Cell growth (cell number, trypan blue / Guava); format: cell-based; conditions: WI38 cells, FIG. 2B
Text: as §1, §2

tumor growth = conditions: animals; cited from earlier work
[13] = oral formulation of PB; cited from earlier work
[14] = tested on: acute myelogenous leukemia; conditions: a patient with acute myelogenous leukemia; cited from earlier work

SMILES: CC(=O)Nc1ccc(C(=O)Nc2ccccc2N)cc1 [CI-994]
- patients having a partial response to therapy ([1]; 32 patients): 7%
- patients having stable disease for over 8 weeks [1]: 28%
- patients with stable disease for greater than 8 weeks [2]: 58%
- HDAC inhibitory potency (level of activity) (HDAC): less potent than the corresponding hydroxamates and cyclic tetrapeptides

SMILES: O=C(/C=C/c1ccc(CN(CCO)CCc2c[nH]c3ccccc23)cc1)NO [LAQ824]
- HDAC inhibitory potency (level of activity) (HDAC): nanomolar inhibitor

SMILES: Nc1ccccc1NC(=O)c1ccc(CNC(=O)OCc2cccnc2)cc1 [MS-275, N-(2-aminophenyl)-4-[N-(pyridin-3-yl-methoxycarbonyl)aminomethyl] benzamide]
- half-life [3]: longer than expected
- HDAC inhibitory potency (level of activity) (HDAC): less potent than the corresponding hydroxamates and cyclic tetrapeptides

SMILES: O=C(CCCCCCC(=O)Nc1ccccc1)NO [SAHA, suberoylanilide hydroxamic acid]
- growth arrest and apoptosis ([4]; transformed VA13, FIGS. 2-3): induced growth arrest and apoptosis
- SAHA concentration sufficient to induce significant apoptosis ([4]; transformed cells, after 24-48 hours of SAHA treatment, FIG. 3A): 1.25 to 2.5 µmol/L
- apoptosis [5]: little or no apoptosis
- TRX protein levels (TRX [6]): quickly decrease to undetectable levels
- persistence of accumulation of acetylated histones in PMN cells [7]: up to 10 hrs
- TRX protein levels (TRX [8]): increased significantly
- TRX mRNA expression (TRX [9]): increased significantly
- drug related deaths ([10]; oral SAHA, patients): no drug related deaths
- longest duration of therapy (durable responses) ([10]; oral SAHA, patients): over 18 months
- oral bioavailability ([10]; oral formulation of SAHA): good oral bioavailibity
- SAHA dose that induces growth arrest [11]: ≥ 2.5 µM
- SAHA dose that induces growth arrest [12]: ≥ 2.5 µM
- toxicity to the animal (tumor growth): no toxicity

SMILES: C/C=C1\NC(=O)[C@H]2CSSCC/C=C/[C@H](CC(=O)N[C@H](C(C)C)C(=O)N2)OC(=O)[C@H](C(C)C)NC1=O [depsipeptide]
- HDAC inhibitory potency (level of activity) (HDAC): active at nanomolar levels
- HDAC inhibitory potency (level of activity) (HDAC; listed as Depsipeptide): inhibits HDACs at nanomolar concentrations

SMILES: O=C(O)CCCc1ccccc1 [phenyl butyrate, Phenyl Butyrate]
- biologic active plasma concentrations reached [13]: 0.5 mM
- oral bioavailability [13]: good bioavailability
- HDAC inhibitory potency (level of activity) (HDAC): millimolar levels of activity

SMILES: CCCC(CCC)C(=O)O [valproic acid, Valproic Acid]
- clinical response [14]: transient partial remission
- HDAC inhibitory potency (level of activity) (HDAC): millimolar levels of activity
